A value given as a limit tells only on which side of the number the result lay.

The values below come from patent publication US9346798B2, “Dihydrobenzoxazine and tetrahydroquinoxaline sodium channel inhibitors” (AMGEN INC., priority 2012, dated 2016).

Type in all cases: cell-based
Series [1] has as its target T1, Nav 1.7 (Homo sapiens (Human), UniProt Q15858). Description: Nav 1.7 in vitro assay, IonWorks Quattro (IWQ) population patch-clamp. To be noted: HEK 293 cells stably transfected with Nav 1.7; 26th pulse to -20 mV. In general terms: In patch-clamp work, channel activity is measured electrically.
In series [2] the target is T1, Nav 1.7. Description: Nav 1.7 in vitro PX assay, PatchXpress whole cell voltage clamp. To be noted: HEK 293 cells stably transfected with human Nav1.7; partially inactivated state (20 to 50% inactivation). The essentials:
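HEK293 cells stably expressing human Nav1.7, whole-cell voltage clamp at a holding potential giving 20–50% inactivation; currents elicited by 20 msec pulses to −10 mV at 0.1 Hz.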

In a further series the target is Nav 1.5 (Homo sapiens (Human), UniProt Q14524). Description: Nav 1.5 in vitro assay, IonWorks Quattro (IWQ) population patch-clamp. To be noted: HEK 293 cells stably transfected with Nav 1.5; 26th pulse to -20 mV.
Sequence of Nav 1.5 (Q14524 whole entry): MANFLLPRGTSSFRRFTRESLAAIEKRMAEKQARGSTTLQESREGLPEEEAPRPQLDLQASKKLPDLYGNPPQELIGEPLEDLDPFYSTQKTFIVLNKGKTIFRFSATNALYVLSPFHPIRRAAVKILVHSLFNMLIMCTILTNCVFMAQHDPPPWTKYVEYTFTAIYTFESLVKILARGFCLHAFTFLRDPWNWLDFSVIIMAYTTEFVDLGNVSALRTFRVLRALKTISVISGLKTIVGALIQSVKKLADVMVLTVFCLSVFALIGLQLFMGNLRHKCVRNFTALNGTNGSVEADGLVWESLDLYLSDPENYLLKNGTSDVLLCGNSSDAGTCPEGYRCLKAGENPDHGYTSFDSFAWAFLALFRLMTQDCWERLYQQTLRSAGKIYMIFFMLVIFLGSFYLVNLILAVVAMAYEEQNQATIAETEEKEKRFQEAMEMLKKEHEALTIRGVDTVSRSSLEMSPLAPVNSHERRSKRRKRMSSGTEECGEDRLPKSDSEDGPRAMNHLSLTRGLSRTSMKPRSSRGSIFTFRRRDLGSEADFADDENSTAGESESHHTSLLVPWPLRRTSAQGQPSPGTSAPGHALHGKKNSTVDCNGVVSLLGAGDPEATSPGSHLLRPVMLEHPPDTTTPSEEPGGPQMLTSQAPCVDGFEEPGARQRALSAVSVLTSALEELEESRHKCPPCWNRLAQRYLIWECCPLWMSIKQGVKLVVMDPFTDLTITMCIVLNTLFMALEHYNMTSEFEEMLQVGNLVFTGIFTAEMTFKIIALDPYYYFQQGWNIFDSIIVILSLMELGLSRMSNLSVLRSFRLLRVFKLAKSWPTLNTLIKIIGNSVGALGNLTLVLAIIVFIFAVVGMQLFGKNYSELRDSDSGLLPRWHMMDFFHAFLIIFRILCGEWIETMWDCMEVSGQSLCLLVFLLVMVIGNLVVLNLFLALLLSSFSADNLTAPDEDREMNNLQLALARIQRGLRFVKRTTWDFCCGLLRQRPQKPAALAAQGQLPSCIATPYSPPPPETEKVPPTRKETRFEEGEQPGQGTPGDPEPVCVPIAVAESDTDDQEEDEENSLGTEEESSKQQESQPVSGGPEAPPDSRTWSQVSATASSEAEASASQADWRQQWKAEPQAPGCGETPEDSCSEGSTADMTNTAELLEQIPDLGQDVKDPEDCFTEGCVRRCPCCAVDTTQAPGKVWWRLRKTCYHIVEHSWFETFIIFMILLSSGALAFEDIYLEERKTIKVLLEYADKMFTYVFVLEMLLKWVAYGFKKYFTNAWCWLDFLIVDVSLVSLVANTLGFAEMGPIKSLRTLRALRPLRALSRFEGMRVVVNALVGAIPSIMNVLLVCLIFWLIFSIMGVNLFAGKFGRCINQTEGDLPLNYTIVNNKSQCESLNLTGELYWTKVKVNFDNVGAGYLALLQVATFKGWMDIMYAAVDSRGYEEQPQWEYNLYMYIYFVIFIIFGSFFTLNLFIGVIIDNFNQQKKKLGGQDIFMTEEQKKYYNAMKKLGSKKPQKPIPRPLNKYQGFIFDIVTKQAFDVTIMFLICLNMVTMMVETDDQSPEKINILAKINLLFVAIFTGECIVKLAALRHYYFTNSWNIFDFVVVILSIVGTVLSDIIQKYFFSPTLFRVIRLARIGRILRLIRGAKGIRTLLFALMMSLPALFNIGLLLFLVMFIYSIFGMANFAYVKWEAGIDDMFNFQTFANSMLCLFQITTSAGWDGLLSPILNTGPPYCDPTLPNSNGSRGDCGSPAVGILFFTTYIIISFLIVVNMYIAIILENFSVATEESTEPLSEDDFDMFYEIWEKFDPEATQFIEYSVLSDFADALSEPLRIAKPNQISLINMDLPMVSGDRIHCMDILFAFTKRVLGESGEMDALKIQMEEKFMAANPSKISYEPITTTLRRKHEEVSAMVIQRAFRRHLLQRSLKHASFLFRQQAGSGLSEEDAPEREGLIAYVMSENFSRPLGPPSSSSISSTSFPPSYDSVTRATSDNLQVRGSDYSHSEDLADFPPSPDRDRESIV

T1 sequence (Q15858 whole entry): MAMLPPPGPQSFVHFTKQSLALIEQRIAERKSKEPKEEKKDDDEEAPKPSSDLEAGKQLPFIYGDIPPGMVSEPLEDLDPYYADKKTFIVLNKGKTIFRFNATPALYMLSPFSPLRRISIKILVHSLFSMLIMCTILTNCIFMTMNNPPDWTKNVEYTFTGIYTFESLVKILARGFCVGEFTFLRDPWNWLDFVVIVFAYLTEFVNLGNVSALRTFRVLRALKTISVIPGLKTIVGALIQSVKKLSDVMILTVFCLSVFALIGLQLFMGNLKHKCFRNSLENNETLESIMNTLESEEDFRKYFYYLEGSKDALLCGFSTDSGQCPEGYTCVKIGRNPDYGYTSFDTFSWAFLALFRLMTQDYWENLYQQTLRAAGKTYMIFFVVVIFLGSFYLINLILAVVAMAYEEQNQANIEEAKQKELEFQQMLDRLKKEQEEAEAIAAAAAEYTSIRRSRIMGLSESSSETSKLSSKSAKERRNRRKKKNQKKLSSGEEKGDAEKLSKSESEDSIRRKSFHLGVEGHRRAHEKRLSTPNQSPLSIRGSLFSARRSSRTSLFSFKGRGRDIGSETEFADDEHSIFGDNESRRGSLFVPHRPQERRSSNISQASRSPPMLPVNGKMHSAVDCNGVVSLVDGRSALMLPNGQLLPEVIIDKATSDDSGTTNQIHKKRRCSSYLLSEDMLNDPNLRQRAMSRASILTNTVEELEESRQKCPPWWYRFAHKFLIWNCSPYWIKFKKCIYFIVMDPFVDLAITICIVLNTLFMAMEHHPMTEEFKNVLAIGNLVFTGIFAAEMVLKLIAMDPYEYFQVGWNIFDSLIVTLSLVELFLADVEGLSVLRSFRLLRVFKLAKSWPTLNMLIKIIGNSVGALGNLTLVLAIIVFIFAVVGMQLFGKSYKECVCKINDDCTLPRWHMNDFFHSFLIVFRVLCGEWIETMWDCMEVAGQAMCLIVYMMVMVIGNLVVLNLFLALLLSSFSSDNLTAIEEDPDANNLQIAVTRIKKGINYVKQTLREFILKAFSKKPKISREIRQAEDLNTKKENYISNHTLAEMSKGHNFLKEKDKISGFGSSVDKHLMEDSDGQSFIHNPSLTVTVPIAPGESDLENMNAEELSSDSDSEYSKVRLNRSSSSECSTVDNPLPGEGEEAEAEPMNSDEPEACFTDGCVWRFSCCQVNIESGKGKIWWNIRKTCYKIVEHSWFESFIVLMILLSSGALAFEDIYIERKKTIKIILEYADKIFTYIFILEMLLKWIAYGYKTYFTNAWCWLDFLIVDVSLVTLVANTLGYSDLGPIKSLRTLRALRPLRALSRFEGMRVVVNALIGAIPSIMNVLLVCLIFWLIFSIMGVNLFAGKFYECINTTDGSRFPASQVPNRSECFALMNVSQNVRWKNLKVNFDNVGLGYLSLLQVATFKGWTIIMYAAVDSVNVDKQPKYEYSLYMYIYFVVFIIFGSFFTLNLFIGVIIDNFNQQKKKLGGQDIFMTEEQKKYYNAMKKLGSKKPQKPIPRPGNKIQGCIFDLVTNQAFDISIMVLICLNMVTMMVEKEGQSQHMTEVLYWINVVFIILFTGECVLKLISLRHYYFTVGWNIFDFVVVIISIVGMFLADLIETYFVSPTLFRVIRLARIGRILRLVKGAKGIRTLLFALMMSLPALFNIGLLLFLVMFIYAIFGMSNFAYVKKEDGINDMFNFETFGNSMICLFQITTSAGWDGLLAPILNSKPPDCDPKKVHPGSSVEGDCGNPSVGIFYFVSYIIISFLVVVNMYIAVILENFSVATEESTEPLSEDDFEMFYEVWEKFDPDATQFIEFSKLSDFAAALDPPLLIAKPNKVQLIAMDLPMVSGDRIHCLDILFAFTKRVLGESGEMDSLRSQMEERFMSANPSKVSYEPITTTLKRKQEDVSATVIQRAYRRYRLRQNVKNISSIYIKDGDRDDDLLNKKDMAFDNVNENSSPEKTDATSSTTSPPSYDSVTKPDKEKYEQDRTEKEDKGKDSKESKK

In the case of `Cc1cc(C#N)ccc1N1CCOc2cc(S(=O)(=O)Nc3nccs3)ccc21` [Example 226, 4-(4-Cyano-2-Methylphenyl)-N-(Thiazol-2-Yl)-3,4-Dihydro-2H-Benzo[B][1,4]Oxazine-7-Sulfonamide], the values for the IC50 on Nav 1.7 [1], on Nav 1.7 [2] and against Nav 1.5 were 36.5 nM, 740 nM and over 10000 nM, respectively.

By IC50 is commonly meant the concentration needed to halve the response being measured. Higher therefore signals lower potency.
